Laboratory results from US7306923B2, “Methods for identification, and compounds useful for the treatment of degenerative & inflammatory diseases” (Galapagos N.V., priority 2004, dated 2007).

Experiments:
[1] = system: MMP1 expression by synovial fibroblasts; experiment: Inhibition of the response of SFs to supernatant of TNFα-triggered THP1 cells, MMP1 ELISA; type: cell-based, human; conditions: dexamethasone 100 nM, SB203580 5 μM, added 1 h before trigger with 2-fold diluted SN of TNFα-activated THP1 cells, 72 h
Description: A 384-well format ELISA for measurement of MMP1 is developed. Various primary antibodies are tested, as well as various ELISA protocols. The following protocol is developed and validated to measure MMP1 levels in SF supernatant in 384 well plates: white Lumitrac 600 384 well plates (Greiner) are coated with 2 μg/ml anti-MMP1 antibody MAB1346 (Chemicon). The antibody is diluted in buffer 40 (1.21 g Tris base (Sigma), 0.58 g NaCl (Calbiochem) and 5 ml 10% NaN3 (Sigma) in 1 L milliQ water and adjusted to pH 8.5). After overnight incubation at 4° C., plates are washed with PBS (80 g NaCl, 2 g KCl (Sigma), 11.5 g Na2HPO4.7H2O and 2 g KH2PO4 in 10 L milliQ; pH 7.4) and blocked with 100 μl/well Casein buffer (2% Casein (VWR International) in PBS). Next day, casein buffer is removed from ELISA plates and replaced by 50 μl/well EC buffer (4 g casein, 2.13 g Na2HPO4 (Sigma), 2 g bovine albumin (Sigma), 0.69 g NaH2PO4.H2O (Sigma), 0.5 g CHAPS (Roche), 23.3 g NaCl, 4 ml 0,5 M EDTA pH 8 (Invitrogen), 5 ml 10% NaN3 in 1 L milliQ and adjusted to pH 7.0). 0.25 mM DTT (Sigma) is added to the thawed samples plates. After removal of the EC buffer, 20 μl of sample is transferred to the ELISA plates. […] Readout is performed on the Luminoscan Ascent Luminometer (Labsystems) with an integration time of 200 msec or with an Envision reader (Perkin Elmer). […]

[2] = system: MMP1 expression by synovial fibroblasts; experiment: MMP1 ELISA on SFs triggered with cytokines or supernatant of cytokine-treated THP1 cells; type: cell-based, human; conditions: each cytokine 25 ng/ml or THP1 supernatant 2-fold diluted, 72 h, 96 well plates
Description: A 384-well format ELISA for measurement of MMP1 is developed. Various primary antibodies are tested, as well as various ELISA protocols. The following protocol is developed and validated to measure MMP1 levels in SF supernatant in 384 well plates: white Lumitrac 600 384 well plates (Greiner) are coated with 2 μg/ml anti-MMP1 antibody MAB1346 (Chemicon). The antibody is diluted in buffer 40 (1.21 g Tris base (Sigma), 0.58 g NaCl (Calbiochem) and 5 ml 10% NaN3 (Sigma) in 1 L milliQ water and adjusted to pH 8.5). After overnight incubation at 4° C., plates are washed with PBS (80 g NaCl, 2 g KCl (Sigma), 11.5 g Na2HPO4.7H2O and 2 g KH2PO4 in 10 L milliQ; pH 7.4) and blocked with 100 μl/well Casein buffer (2% Casein (VWR International) in PBS). Next day, casein buffer is removed from ELISA plates and replaced by 50 μl/well EC buffer (4 g casein, 2.13 g Na2HPO4 (Sigma), 2 g bovine albumin (Sigma), 0.69 g NaH2PO4.H2O (Sigma), 0.5 g CHAPS (Roche), 23.3 g NaCl, 4 ml 0,5 M EDTA pH 8 (Invitrogen), 5 ml 10% NaN3 in 1 L milliQ and adjusted to pH 7.0). […] Readout is performed on the Luminoscan Ascent Luminometer (Labsystems) with an integration time of 200 msec or with an Envision reader (Perkin Elmer).
The increase of MMP1 expression by SFs upon treatment with cytokines relevant in the field of RA (TNFα, IL1β and OSM) or a combination thereof is monitored. […]

Compound | MMP1 levels lower than control levels [1] [fold] | increase (induction) of MMP1 expression by SFs [2] [fold]
C[S+]([O-])c1ccc(-c2nc(-c3ccncc3)c(-c3ccc(F)cc3)[nH]2)cc1 (stereo not drawn) [SB203580] | 3 | –
C[C@@H]1C[C@H]2[C@@H]3CCC4=CC(=O)C=C[C@]4(C)[C@@]3(F)[C@@H](O)C[C@]2(C)[C@@]1(O)C(=O)CO [dexamethasone] | 4 | –
TNFα | – | ~3
